Test results taken from US20240148745A1, “COMPOUNDS FOR USE IN PROGRESSIVE MULTIPLE SCLEROSIS” (FONDAZIONE CENTRO SAN RAFFAELE, priority 2021, published 2024).
Where a name gives a salt, the structure may show the parent alone.

Key:
[1] = test system: rat oligodendrocyte progenitor CG4 line; test: Differentiation assay on rat oligodendrocyte progenitor CG4 line (HCS, mCherry+); format: cell-based; conditions: secondary screen of 49 selected compounds, 1 μM, 5 days
Source text: Primary validation on CG4 line toxicity and differentiation. An innovative OPC line was developed for fast and reliable high content screening (HCS) of small compounds inducing oligodendrocyte differentiation. The line was genetically engineered by lentiviral transduction of rat CG4 cells (PubMed=1613821; DOI=10.1002/jnr.490310125; Louis J. C., Magal E., Muir D., Manthorpe M., Varon S.; CG-4, a new bipotential glial cell line from rat brain, is capable of differentiating in vitro into either mature oligodendrocytes or type-2 astrocytes. J. Neurosci. Res. 31:193-204(1992) to express mCherry fluorescent reporter (Evercooren, Anne & Avellana-Adalid, V. & Vitry, Sandrine & Nait-Oumesmar, Brahim & Lachapelle, Francois. (1997). Expansion of Oligodendrocyte Progenitors for Myelin Repair. 10.1007/978-1-4615-5949-8_21) in mature oligodendrocytes only, and EGFP at all stage of the oligodendroglial lineage: both the generation of mature oligodendrocytes (wmNl-mCherry) and the morphological changes associated with differentiation (CMV-EGFP) can be therefore monitored in a single assay. mCherry expression occurred only in O4+/GalC+ differentiated oligodendrocytes and GFP was ubiquitously expressed at all developmental stages. The line so obtained was validated using compounds with well-established effects on oligodendrocyte differentiation (cAMP and T3). Cell-based assay was standardized on the HCS platform (ArrayScanXTI, Brain and Spine Institute (Paris), validating the pro-differentiation effects of clemastine^27 and 9cis-retinoic acid.^28 For HCS validation of 274 compounds identified through in silico screen, double-fluo CG4 line cells were plated in 96 well-plates, 6500 cells/cm^2 and left for 24 h in proliferation. The other day, compounds were added (1 μM) for next 5 days of differentiation, with ⅔ medium changed after 3 days. 9-cis Retinoic Acid (9cis-RA; […]) served as a positive control, negative controls were basal (N1) medium and vehicle (basal+0.1% DMSO). Each compound was tested in triplicate and were imaged with ArrayScanXTI system (35 fields/well) after 5 days of differentiation.
FIG. 4 provides a schematic representation of High Content Screening (HCS) validation of the 274 compounds identified through in silico screening using CG4 line. […] In addition, the whole short list of 160 non-toxic compounds were screened using the CG4 high content phenotypic assay to further confirm the data from primary screening and to potentially select additional compounds with pro-myelinating activities. From this screening of the short list, 49 hit compounds were identified that increase differentiation either of CG4 cells or primary OPCs (FIG. 6).

[2] = test system: mouse cortical neurons; test: Morphological integrity evaluation, NMDA 8 μM (MAP2 neurite length and branching); format: cell-based; conditions: 3 h pre-treatment, NMDA 8 μM 24 h; Z>0.5 criteria
Protocol: Apart of viability/metabolic readout in NMDA-mediated neurotoxicity assay, a neuronal structural integrity was evaluated by MAP2 staining. Mouse cortical neurons (14 DIV) cultured in MW96 plates were fixed with 4% paraformaldehyde (PFA). Fixed cells were incubated with blocking solution (PBS 1×, donkey serum 5%, Triton 0.1%) for 1-hour, primary antibody (rabbit α-MAP2, 1:250, Millipore) was applied in the same solution overnight at +4° C. […] Nuclei were stained with 4′-6-diamidino-2-phenylindole (DAPI, Roche). Microscopy was performed using ArrayScan™XTI (ThermoFisher) imaging platform. 15 images per well were acquired and analyzed by CellProfiler. Total neurite length and the total number of non-trunk branches were analyzed. Total neurite length and the total number of branching were evaluated from 15 images/well, each compound or control was tested in triplicates. The total neurite length and total number of branches were converted to a standardized Z-score using formula: Xij=((Xij−μ)/σ), where xij is the raw measurement of the compound located in well (i, j), and μ and σ are, respectively, the mean and the standard deviation of all measurements of the plate.^31
The morphological integrity of mouse cortical neurons upon chronic 24 h NMDA (8 μM) exposure with compounds pre-treatment (3 h) in preventive regimen was evaluated. Control (basal), DMSO, N-acetylcysteine (NAC) served as positive controls, while staurosporine and NMDA were negative controls.

Compound: Cc1cc(Oc2ccc3nc(COc4ccc(CC5SC(=O)NC5=O)cc4)n(C)c3c2)cc(C)c1N (stereo not drawn) [Efatutazone hydrochloride, Efatutazone Hydrochloride]
- CG4 differentiation compared with 9cis-RA positive control [1]: promoting differentiation significantly higher than 9cis-RA positive control

Compound: CC[C@H](NC(=O)c1cc(-c2ccccc2)nc2ccccc12)c1ccccc1 [AZD-7624]
- preservation of neurite length and network integrity (branching) [2]: preserved both neurite length and the network integrity (branching)

Compound: C[N+](C)(C)CCOP(=O)([O-])OC[C@H](O)CO [CHOLINE ALFOSCERATE]
- CG4 differentiation compared with 9cis-RA positive control [1]: promoting differentiation significantly higher than 9cis-RA positive control

Compound: O=C(O)CCn1c2c(c3ccccc31)C[C@H](NS(=O)(=O)c1ccc(F)cc1)CC2 [Ramatroban]
- preservation of neurite length and network integrity (branching) [2]: preserved both neurite length and the network integrity (branching)

Compound: O=C1NC(=O)C(c2cnc3ccccn23)=C1c1cn2c3c(cc(F)cc13)CN(C(=O)N1CCCCC1)CC2 [LY-2090314]
- CG4 differentiation compared with 9cis-RA positive control [1]: promoting differentiation significantly higher than 9cis-RA positive control

Compound: CNC(=O)c1ccc(-c2cnc3ncc(Cc4ccc5ncccc5c4)n3n2)cc1F [Capmatinib]
- preservation of neurite length and network integrity (branching) [2]: preserved both neurite length and the network integrity (branching)

Compound: N[C@@H](Cc1ccccc1)C(=O)O [L-Phenylalanine]
- preservation of neurite length and network integrity (branching) [2]: preserved both neurite length and the network integrity (branching)

Compound: CC(C)(C)S(=O)(=O)N[C@H]1CC[C@H](C(=O)Nc2ccc(C(F)(F)F)cn2)CC1 [Velneperit]
- preservation of neurite length and network integrity (branching) [2]: preserved both neurite length and the network integrity (branching)

Compound: C[C@]12CCC(=O)C[C@@H]1CC[C@@H]1[C@@H]2CC[C@]2(C)[C@@H](O)CC[C@@H]12 [STANOLONE]
- CG4 differentiation compared with 9cis-RA positive control [1]: promoting differentiation significantly higher than 9cis-RA positive control

Compound: CC[C@H](CO)Nc1nc(NCc2ccccc2)c2ncn(C(C)C)c2n1 [Seliciclib]
- preservation of neurite length and network integrity (branching) [2]: preserved both neurite length and the network integrity (branching)

Compound: COCCOc1cnc2ccn([C@H](C)c3nnc4c(F)cc(-c5cnn(C)c5)cn34)c(=O)c2c1 [AMG-337]
- CG4 differentiation compared with 9cis-RA positive control [1]: promoting differentiation significantly higher than 9cis-RA positive control

Compound: CN=C(NS(=O)(=O)c1ccc(Cl)cc1)N1C[C@H](c2ccccc2)C(c2ccc(Cl)cc2)=N1 [Ibipinabant]
- preservation of neurite length and network integrity (branching) [2]: preserved both neurite length and the network integrity (branching)

Compound: CN(C(=O)C(c1ccccc1)c1ccccc1)[C@H](CN1CC[C@H](O)C1)c1ccccc1 [ASIMADOLINE]
- CG4 differentiation compared with 9cis-RA positive control [1]: promoting differentiation significantly higher than 9cis-RA positive control

Compound: NC(=O)c1ccc(N(C(N)=O)c2c(F)cccc2F)nc1-c1ccc(F)cc1F [VX-702]
- preservation of neurite length and network integrity (branching) [2]: preserved both neurite length and the network integrity (branching)

Compound: COc1ccsc1CNCC[C@@]1(c2ccccn2)CCOC2(CCCC2)C1 [Oliceridine]
- preservation of neurite length and network integrity (branching) [2]: preserved both neurite length and the network integrity (branching)

Compound: Cc1cc(Nc2cc(CN3CCOCC3)c3nc(C)c(Cc4ccc(Cl)cc4F)n3n2)n[nH]1 [GANDOTINIB, Gandotinib]
- CG4 differentiation compared with 9cis-RA positive control [1]: promoting differentiation significantly higher than 9cis-RA positive control

Compound: Cc1cc(F)c(C(=O)Nc2cccc(-c3nncn3C(C)C)n2)cc1-n1cnc(C2CC2)c1 [GS-4997]
- preservation of neurite length and network integrity (branching) [2]: preserved both neurite length and the network integrity (branching)

Compound: C[C@@H]1COC(Nc2ccc3ncnc(Nc4ccc(OCc5nccs5)c(Cl)c4)c3c2)=N1 [Varlitinib]
- preservation of neurite length and network integrity (branching) [2]: preserved both neurite length and the network integrity (branching)

Compound: CNC(=O)c1cc(Oc2ccc(NC(=O)Nc3cc(C(C)(C)C)nn3-c3ccc4ncccc4c3)c(F)c2)ccn1 [REBASTINIB]
- CG4 differentiation compared with 9cis-RA positive control [1]: promoting differentiation significantly higher than 9cis-RA positive control

Compound: CN1Cc2cc(Cl)ccc2-n2c(nnc2[C@H]2CC[C@H](Oc3ccccn3)CC2)C1 [RG7314]
- preservation of neurite length and network integrity (branching) [2]: preserved both neurite length and the network integrity (branching)

Compound: Cc1cncc(CN2CCC(=C3c4ccc(Cl)cc4CCc4cccnc43)CC2)c1 [Rupatadine]
- CG4 differentiation compared with 9cis-RA positive control [1]: promoting differentiation significantly higher than 9cis-RA positive control

Compound: CN(C(=O)c1ccc(F)cc1C(F)(F)F)C1CCN(c2nnc(-c3ccnn3C)c3ccccc23)CC1 [Taladegib]
- CG4 differentiation compared with 9cis-RA positive control [1]: promoting differentiation significantly higher than 9cis-RA positive control

Compound: Cc1ccc(C(=O)NC2CC2)cc1-n1ncc(C(=O)c2cccc(C#N)c2)c1N [Acumapimod]
- CG4 differentiation compared with 9cis-RA positive control [1]: promoting differentiation significantly higher than 9cis-RA positive control

Compound: O=C(O)Cn1c2c(c3cc(F)ccc31)CN(C(=O)c1cccc3ccccc13)CC2 [SETIPIPRANT]
- CG4 differentiation compared with 9cis-RA positive control [1]: promoting differentiation significantly higher than 9cis-RA positive control

Compound: O=C(O)[C@H](CC(=O)N1C[C@H]2CCCC[C@H]2C1)Cc1ccccc1 [Mitiglinide]
- preservation of neurite length and network integrity (branching) [2]: preserved both neurite length and the network integrity (branching)

Compound: CCCc1nc(C(F)(F)F)ccc1/C=C/C(=O)N[C@H](C)c1cc(F)c(NS(C)(=O)=O)c(F)c1 [PAC-14028]
- CG4 differentiation compared with 9cis-RA positive control [1]: promoting differentiation significantly higher than 9cis-RA positive control

Compound: O=c1sn(-c2cccc3ccccc23)c(=O)n1Cc1ccccc1 [Tideglusib]
- preservation of neurite length and network integrity (branching) [2]: preserved both neurite length and the network integrity (branching)

Compound: CNC(=O)c1ccc2cc([C@@]3(O)CCn4cncc43)ccc2c1 [Orteronel]
- preservation of neurite length and network integrity (branching) [2]: preserved both neurite length and the network integrity (branching)

Compound: CC(=O)N(C)c1cccc(-c2ccnc3c(C(=O)c4cccs4)cnn23)c1 [Indiplon]
- preservation of neurite length and network integrity (branching) [2]: preserved both neurite length and the network integrity (branching)

Compound: O=c1oc2c(O)c(O)cc3c(=O)oc4c(O)c(O)cc1c4c23 [Ellagic Acid]
- CG4 differentiation compared with 9cis-RA positive control [1]: promoting differentiation significantly higher than 9cis-RA positive control
